Source: the supplement of paper PMC10307832

Tests used:
Assay in all cases: relative viability (nuclei count vs DMSO), 5 days (fraction); higher = more cells survive
NCI-H650 = system: NCI-H650
In short: (§1)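 Relative viability was taken as the ratio of nuclei in treated wells to nuclei in vehicle wells. Lung cancer cell lines in 1536-well plates received compounds by pin tool one day after seeding, either one drug alone or a fixed anchor-drug dose plus five library-drug doses (not always all listed) in √10 steps. Nuclei were counted on 4× images after 5 days of treatment, and values are medians of duplicate plates.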

SK-MES-1 = system: SK-MES-1
In short: as §1

HCC-44 = system: HCC-44
In short: as §1

HCC-827 = system: HCC-827
In short: as §1

NCI-H23 = system: NCI-H23
In short: as §1

201T = system: 201T
In short: as §1

NCI-H596 = system: NCI-H596
In short: as §1

COR-L 105 = system: COR-L 105
In short: as §1

NCI-H1437 = system: NCI-H1437
In short: as §1

HARA = system: HARA
In short: as §1

NCI-H838 = system: NCI-H838
In short: as §1

NC(=O)Nc1cc(-c2cccc(F)c2)sc1C(=O)N[C@H]1CCCNC1 [AZD7762] + CS(=O)(=O)N1CCN(Cc2cc3nc(-c4cccc5[nH]ncc45)nc(N4CCOCC4)c3s2)CC1 [Pictilisib] (partner 1 µM)
relative viability (NCI-H650; first compound 0.01 µM): 0.906
relative viability (NCI-H650; first compound 0.03162 µM): 0.854
relative viability (NCI-H650; first compound 0.1 µM): 0.855
relative viability (NCI-H650; first compound 0.3162 µM): 1
relative viability (NCI-H650; first compound 1 µM): 0.839
relative viability (SK-MES-1; first compound 0.01 µM): 0.353
relative viability (SK-MES-1; first compound 0.03162 µM): 0.322
relative viability (SK-MES-1; first compound 0.1 µM): 0.358
relative viability (SK-MES-1; first compound 0.3162 µM): 0.331
relative viability (SK-MES-1; first compound 1 µM): 0.25
relative viability (HCC-44; first compound 0.01 µM): 0.642
relative viability (HCC-44; first compound 0.03162 µM): 0.627
relative viability (HCC-44; first compound 0.1 µM): 0.584
relative viability (HCC-44; first compound 0.3162 µM): 0.612
relative viability (HCC-44; first compound 1 µM): 0.556
relative viability (HCC-827; first compound 0.01 µM): 1.36
relative viability (HCC-827; first compound 0.03162 µM): 0.962
relative viability (HCC-827; first compound 0.1 µM): 1.17
relative viability (HCC-827; first compound 0.3162 µM): 1.21
relative viability (HCC-827; first compound 1 µM): 0.682
relative viability (NCI-H23; first compound 0.01 µM): 0.56
relative viability (NCI-H23; first compound 0.03162 µM): 0.533
relative viability (NCI-H23; first compound 0.1 µM): 0.446
relative viability (NCI-H23; first compound 0.3162 µM): 0.358
relative viability (NCI-H23; first compound 1 µM): 0.228
relative viability (201T; first compound 0.01 µM): 0.707
relative viability (201T; first compound 0.03162 µM): 0.689
relative viability (201T; first compound 0.1 µM): 0.668
relative viability (201T; first compound 0.3162 µM): 0.65
relative viability (201T; first compound 1 µM): 0.738
relative viability (NCI-H596; first compound 0.01 µM): 0.405
relative viability (NCI-H596; first compound 0.03162 µM): 0.411
relative viability (NCI-H596; first compound 0.1 µM): 0.487
relative viability (NCI-H596; first compound 0.3162 µM): 0.454
relative viability (NCI-H596; first compound 1 µM): 0.389
relative viability (COR-L 105; first compound 0.01 µM): 0.486
relative viability (COR-L 105; first compound 0.03162 µM): 0.365
relative viability (COR-L 105; first compound 0.1 µM): 0.31
relative viability (COR-L 105; first compound 0.3162 µM): 0.353
relative viability (COR-L 105; first compound 1 µM): 0.242
relative viability (NCI-H1437; first compound 0.01 µM): 0.501
relative viability (NCI-H1437; first compound 0.03162 µM): 0.442
relative viability (NCI-H1437; first compound 0.1 µM): 0.483
relative viability (NCI-H1437; first compound 0.3162 µM): 0.555
relative viability (NCI-H1437; first compound 1 µM): 0.477
relative viability (HARA; first compound 0.01 µM): 0.346
relative viability (HARA; first compound 0.03162 µM): 0.435
relative viability (HARA; first compound 0.1 µM): 0.353
relative viability (HARA; first compound 0.3162 µM): 0.412
relative viability (HARA; first compound 1 µM): 0.32
relative viability (NCI-H838; first compound 0.01 µM): 0.544
relative viability (NCI-H838; first compound 0.03162 µM): 0.45
relative viability (NCI-H838; first compound 0.1 µM): 0.471
relative viability (NCI-H838; first compound 0.3162 µM): 0.53
relative viability (NCI-H838; first compound 1 µM): 0.25
